Results: ChEMBL document CHEMBL1151083, “Synthesis & characterization of N-amino-glyphosate as a potent analog inhibitor of E. coli EPSP synthase” (Bioorg Med Chem Lett, 1993)

Experiments:
[1] = target: T1, 3-phosphoshikimate 1-carboxyvinyltransferase (Escherichia coli K-12, UniProt P0A6D3); assay: Tested for the inhibition against Escherichia coli 5-enolpyruvyl-shikimate-3-phosphate synthase
T1 sequence (P0A6D3 whole entry): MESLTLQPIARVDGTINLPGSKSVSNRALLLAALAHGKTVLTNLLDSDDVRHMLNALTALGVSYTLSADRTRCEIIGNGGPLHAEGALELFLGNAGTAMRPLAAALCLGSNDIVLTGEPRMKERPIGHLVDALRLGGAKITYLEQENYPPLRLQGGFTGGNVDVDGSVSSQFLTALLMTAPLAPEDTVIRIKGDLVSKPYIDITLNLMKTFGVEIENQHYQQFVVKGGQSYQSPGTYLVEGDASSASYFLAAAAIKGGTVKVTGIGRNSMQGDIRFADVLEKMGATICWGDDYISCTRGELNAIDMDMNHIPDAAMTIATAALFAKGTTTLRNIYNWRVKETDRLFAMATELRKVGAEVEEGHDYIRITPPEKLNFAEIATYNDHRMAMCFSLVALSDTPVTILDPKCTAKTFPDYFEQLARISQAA

[2] = target: T1, 3-phosphoshikimate 1-carboxyvinyltransferase; assay: Tested for the inhibition against Escherichia coli 5-enolpyruvyl-shikimate-3-phosphate synthase versus phosphoenolpyruvate
[3] = target: T1, 3-phosphoshikimate 1-carboxyvinyltransferase; assay: Tested for the dissociation constant against Escherichia coli 5-enolpyruvyl-shikimate-3-phosphate synthase
[4] = target: T2, 3-phosphoshikimate 1-carboxyvinyltransferase (Escherichia coli K-12) (UniProt P0A6D3)
T2 sequence (whole entry): T1 sequence (P0A6D3 whole entry)
Description: Tested for the dissociation rate against Escherichia coli 5-enolpyruvyl-shikimate-3-phosphate synthase

[5] = target: T2, 3-phosphoshikimate 1-carboxyvinyltransferase (Escherichia coli K-12); remark: listed apart in the source
Description: Tested for the rate of association against Escherichia coli 5-enolpyruvyl-shikimate-3-phosphate synthase

SMILES	IC50 [1] [µM]	Ki [2] [µM]	further results
O=C(O)CNC[PH](=O)O	700		
O=C(O)CN(O)CP(=O)(O)O		2.2	
CC(NCC(=O)O)P(=O)(O)O (stereo not given)	> 80		
CN(CC(=O)O)CP(=O)(O)O	150	78	
NC(CC(=O)O)CP(=O)(O)O (stereo not given)	> 80		
CC(NCP(=O)(O)O)C(=O)O (stereo not given)	> 80		
NN(CC(=O)O)CP(=O)(O)O		0.61	Kd [3]: 0.5 µM; k off [4]: 0.16 s⁻¹; k on [5]: 320000 M⁻¹ s⁻¹
COC(=O)CNCP(=O)(O)O	> 1		
O=C(O)CNCP(=O)(O)O			k off [4]: 0.12 s⁻¹; k on [5]: 780000 M⁻¹ s⁻¹
O=NN(CC(=O)O)CP(=O)(O)O		2.2	
